Reference: US20230416248A1, “COMPOUNDS AND USES THEREOF” (Foghorn Therapeutics Inc., priority 2020, published 2023)
Where two headings read alike, the source gives them in different places.

How the values were obtained:
[1] = target: T1, BRG-1 (Homo sapiens, UniProt P51532); test: ATPase catalytic activity of BRG-1, ADP-Glo in vitro biochemical assay; conditions: 30 nM BRG-1, 400 μM ATP, read-out: BRG1 IC50
T1 construct: made in house; host or cells: High Five insect cells
In short: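 Once the ATPase reaction finished, leftover ATP was depleted over 40 minutes at room temperature. Generated ADP was next turned back into ATP during a 60-minute room-temperature step. Luciferase-derived light was then measured.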

[2] = target: T2, BRM (Homo sapiens, UniProt P51531); test: ATPase catalytic activity of BRM, ADP-Glo in vitro biochemical assay; conditions: for IC50: 30 nM BRM, 400 μM ATP; for Ratio* (BRG1 IC50 (μM) divided by BRM IC50 (μM)): selectivity ratio BRG1 IC50 / BRM IC50
T2 construct: made in house; host or cells: High Five insect cells
In short: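 ADP-Glo luminescence, after depletion of leftover ATP and conversion of ADP, reported the activity. The 1 h room-temperature reaction held 400 μM ATP, 20 nM salmon sperm DNA and 30 nM BRM in 20 mM Tris pH 8, 20 mM MgCl2, 50 mM NaCl, 0.1% Tween-20, 1 mM DTT.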

[3] = ATPase catalytic activity, ADP-Glo

T1 sequence (P51532 whole entry): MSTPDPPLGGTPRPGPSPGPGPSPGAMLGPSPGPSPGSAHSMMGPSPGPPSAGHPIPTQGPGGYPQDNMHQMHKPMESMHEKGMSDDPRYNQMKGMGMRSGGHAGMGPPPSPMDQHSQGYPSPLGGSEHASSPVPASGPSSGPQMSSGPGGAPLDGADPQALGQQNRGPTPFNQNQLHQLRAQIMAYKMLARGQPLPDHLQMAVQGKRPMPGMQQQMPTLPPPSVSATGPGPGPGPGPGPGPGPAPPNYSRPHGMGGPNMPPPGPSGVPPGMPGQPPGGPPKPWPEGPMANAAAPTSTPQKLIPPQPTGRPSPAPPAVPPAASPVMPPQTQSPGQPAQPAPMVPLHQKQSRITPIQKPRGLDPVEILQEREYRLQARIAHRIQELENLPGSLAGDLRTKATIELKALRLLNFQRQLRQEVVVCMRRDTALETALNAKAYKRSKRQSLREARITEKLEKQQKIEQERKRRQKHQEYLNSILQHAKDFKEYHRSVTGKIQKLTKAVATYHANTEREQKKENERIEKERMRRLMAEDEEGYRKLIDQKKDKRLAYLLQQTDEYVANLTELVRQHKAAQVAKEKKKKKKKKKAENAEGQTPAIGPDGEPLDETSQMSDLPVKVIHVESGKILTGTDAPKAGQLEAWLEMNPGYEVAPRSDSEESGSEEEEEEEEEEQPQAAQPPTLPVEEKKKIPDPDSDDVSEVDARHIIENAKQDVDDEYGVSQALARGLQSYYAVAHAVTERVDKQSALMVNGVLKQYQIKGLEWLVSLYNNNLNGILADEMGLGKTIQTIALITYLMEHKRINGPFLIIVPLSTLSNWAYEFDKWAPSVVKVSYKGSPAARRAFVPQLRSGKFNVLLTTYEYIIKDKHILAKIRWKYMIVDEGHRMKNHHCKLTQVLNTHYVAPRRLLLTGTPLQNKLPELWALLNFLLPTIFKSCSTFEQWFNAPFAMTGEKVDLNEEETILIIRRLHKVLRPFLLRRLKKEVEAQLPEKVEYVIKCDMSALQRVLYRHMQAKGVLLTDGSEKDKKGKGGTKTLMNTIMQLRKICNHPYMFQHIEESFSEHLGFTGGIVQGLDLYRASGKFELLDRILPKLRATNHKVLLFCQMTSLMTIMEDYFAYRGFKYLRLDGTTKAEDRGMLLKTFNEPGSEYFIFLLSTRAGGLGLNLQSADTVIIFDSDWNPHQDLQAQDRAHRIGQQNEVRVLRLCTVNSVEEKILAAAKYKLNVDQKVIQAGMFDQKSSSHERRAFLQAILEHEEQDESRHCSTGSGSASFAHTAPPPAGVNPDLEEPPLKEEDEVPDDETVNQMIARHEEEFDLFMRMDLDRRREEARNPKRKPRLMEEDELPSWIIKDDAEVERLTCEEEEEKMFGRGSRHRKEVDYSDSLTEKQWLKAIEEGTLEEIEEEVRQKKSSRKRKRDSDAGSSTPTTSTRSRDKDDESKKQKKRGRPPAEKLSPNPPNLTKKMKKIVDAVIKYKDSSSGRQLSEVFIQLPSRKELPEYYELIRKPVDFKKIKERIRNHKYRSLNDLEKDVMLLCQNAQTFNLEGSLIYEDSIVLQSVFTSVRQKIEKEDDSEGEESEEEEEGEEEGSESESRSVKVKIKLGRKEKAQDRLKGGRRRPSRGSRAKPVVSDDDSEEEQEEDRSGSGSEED
T2 sequence (P51531 whole entry): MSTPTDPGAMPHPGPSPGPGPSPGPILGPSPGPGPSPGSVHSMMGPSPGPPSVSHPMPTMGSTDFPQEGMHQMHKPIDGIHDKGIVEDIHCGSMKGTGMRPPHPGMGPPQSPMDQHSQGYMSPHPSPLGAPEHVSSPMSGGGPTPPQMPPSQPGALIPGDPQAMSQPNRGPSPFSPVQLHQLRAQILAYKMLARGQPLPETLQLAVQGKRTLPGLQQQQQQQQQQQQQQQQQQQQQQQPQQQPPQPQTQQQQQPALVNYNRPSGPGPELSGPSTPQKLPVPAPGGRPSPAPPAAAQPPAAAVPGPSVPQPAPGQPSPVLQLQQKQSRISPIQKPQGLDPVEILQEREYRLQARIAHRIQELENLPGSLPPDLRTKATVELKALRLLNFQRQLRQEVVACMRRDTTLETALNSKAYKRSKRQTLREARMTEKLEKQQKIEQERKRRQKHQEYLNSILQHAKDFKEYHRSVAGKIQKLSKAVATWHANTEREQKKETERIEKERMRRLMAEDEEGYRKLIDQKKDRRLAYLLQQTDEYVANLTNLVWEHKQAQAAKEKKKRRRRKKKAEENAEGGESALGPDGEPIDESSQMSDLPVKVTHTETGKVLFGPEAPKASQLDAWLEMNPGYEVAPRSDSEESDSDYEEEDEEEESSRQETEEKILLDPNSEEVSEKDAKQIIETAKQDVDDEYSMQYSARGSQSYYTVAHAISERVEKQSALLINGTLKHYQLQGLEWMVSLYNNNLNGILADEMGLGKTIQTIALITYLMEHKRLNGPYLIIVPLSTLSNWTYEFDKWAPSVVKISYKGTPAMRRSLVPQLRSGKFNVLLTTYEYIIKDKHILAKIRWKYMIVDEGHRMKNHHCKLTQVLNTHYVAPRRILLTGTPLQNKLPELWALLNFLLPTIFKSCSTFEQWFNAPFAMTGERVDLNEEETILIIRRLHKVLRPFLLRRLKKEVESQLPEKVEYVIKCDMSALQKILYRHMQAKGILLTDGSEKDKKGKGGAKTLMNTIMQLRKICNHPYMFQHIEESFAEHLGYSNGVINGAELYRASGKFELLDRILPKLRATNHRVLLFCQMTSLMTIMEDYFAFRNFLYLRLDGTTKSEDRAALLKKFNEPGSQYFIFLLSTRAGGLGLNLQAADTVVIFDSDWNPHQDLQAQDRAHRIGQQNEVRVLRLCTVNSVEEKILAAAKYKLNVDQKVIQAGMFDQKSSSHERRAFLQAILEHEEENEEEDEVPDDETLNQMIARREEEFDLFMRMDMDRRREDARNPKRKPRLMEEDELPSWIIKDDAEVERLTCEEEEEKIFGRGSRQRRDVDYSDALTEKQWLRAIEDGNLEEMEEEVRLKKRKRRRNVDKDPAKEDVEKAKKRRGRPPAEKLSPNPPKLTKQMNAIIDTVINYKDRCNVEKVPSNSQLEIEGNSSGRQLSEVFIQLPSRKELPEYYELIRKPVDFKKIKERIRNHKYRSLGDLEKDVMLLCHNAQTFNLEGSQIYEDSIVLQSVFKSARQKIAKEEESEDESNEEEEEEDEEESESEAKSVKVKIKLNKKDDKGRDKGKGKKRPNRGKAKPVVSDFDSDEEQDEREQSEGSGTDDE

IC50 ([1]; ADP-Glo ATPase assay) [nM] | IC50 ([2]; ADP-Glo ATPase assay) [nM] | Ratio* (BRG1 IC50 (μM) divided by BRM IC50 (μM)) [2] | Ratio* ([2]; ratio BRG1 IC50 / BRM IC50) | IC50 [1, 3] [nM] | IC50 [2, 3] [nM] | Ratio* ([2]; ratio of BRG1 IC50 to BRM IC50) | Compound
25.2 | 4.5 | 5.59 |  |  |  |  | C[C@@H]1CN(c2cccc(-c3ccc4cnc(CNC(=O)c5ccc6c(c5)S(=O)(=O)[C@@H](C)COC6)cc4n3)n2)C[C@H](C)O1 [Compound 155]
67.1 | 8.1 |  | 8.31 |  |  |  | COc1c(F)cnc2c1CCCN2c1ccc2cnc(CNC(=O)c3ccc4c(c3)S(=O)(=O)CCOC4)cc2n1 [Compound 802]
 |  |  |  | 3730 | 1230 | 3.03 | COCCN(C)c1cccc(-c2ccc3cnc(CNC(=O)c4ccc5c(c4)S(=O)(=O)CCOC5)cc3n2)c1OC [Compound 347]
 |  |  |  | 3930 | 249 | 15.80 | C[C@@H]1CN(c2cccc(-c3ccc4cnc(CNC(=O)c5ccc6c(c5)S(=O)(=O)CCOC6(C)C)cc4n3)n2)C[C@H](C)O1 [Compound 655]
2620 | 466 | 5.63 |  |  |  |  | CC(C)(F)c1cncc(-c2ccc3cnc(CNC(=O)c4ccc5c(c4)S(=O)(=O)CCOC5)cc3n2)n1 [Compound 262]
282 | 20.5 | 13.77 |  |  |  |  | COC1CN(c2cccc(-c3ccc4cnc(CNC(=O)c5ccc6c(c5)S(=O)(=O)CCOC6)cc4n3)n2)C1 [Compound 228]
 |  |  |  | 210 | 12.9 | 16.27 | COC[C@@H]1C[C@@H]1N(C)c1cccc(-c2ccc3cnc(CNC(=O)c4ccc5c(c4)S(=O)(=O)CCOC5)cc3n2)n1 [Compound 413]
 |  |  |  | 329 | 21.1 | 15.59 | CC1COCc2ccc(C(=O)NCc3cc4nc(-c5cccc(N6C[C@@H](C)O[C@@H](C)C6)n5)ccc4cn3)cc2S1(=O)=O (some centres unmarked) [Compound 319]
 |  |  |  | 960 | 10.2 | 93.83 | O=C(NCc1cc2nc(N3CCOc4ccc([C@@H]5CC5(F)F)nc43)ccc2cn1)c1ccc2c(c1)S(=O)(=O)CCOC2 [Compound 702]
31.3 | 3.7 | 8.49 |  |  |  |  | Cc1ccc(C(=O)NCc2cc3nc(-c4cccc(N5C[C@@H](C)O[C@@H](C)C5)n4)ccc3cn2)cc1S(C)(=O)=O [Compound 195]
4770 | 1730 |  | 2.75 |  |  |  | COCC1CN(c2ccc3cnc(CNC(=O)c4ccc5c(c4)S(=O)(=O)CCOC5)cc3n2)c2ccccc2O1 (centres unmarked) [Compound 716]
 |  |  |  | 142 | 8.4 | 17.03 | COc1nc(C(F)F)ccc1-c1ccc2cnc(CNC(=O)c3cc(F)c4c(c3)S(=O)(=O)CCOC4)cc2n1 [Compound 404]
 |  |  |  | 195 | 16 | 12.19 | O=C(NCc1cc2nc(-c3cccc(N4CC[C@@H]5C[C@@H]5C4)n3)ccc2cn1)c1ccc2c(c1)S(=O)(=O)CCOC2 [Compound 321]
667 | 54.9 |  |  |  |  |  | COc1cc2c(cc1F)CCCN2c1ccc2cnc(CNC(=O)c3ccc4c(c3)S(=O)(=O)CCOC4)cc2n1 [Compound 714]
 |  |  |  | 120 | 9.1 | 13.22 | CN(C[C@@H]1CCO1)c1cccc(-c2ccc3cnc(CNC(=O)c4ccc5c(c4)S(=O)(=O)CCOC5)cc3n2)n1 [Compound 382]
906 | 15.5 |  | 58.26 |  |  |  | C[C@@H]1C[C@@H]1c1ccc2c(n1)N(c1ccc3cnc(CNC(=O)c4ccc5c(c4)S(=O)(=O)CCOC5)cc3n1)CCO2 [Compound 832]
 |  |  |  | 81.9 | 5.5 | 14.77 | COCCOc1ccc2c(c1)N(c1ccc3cnc(CNC(=O)c4ccc5c(c4)S(=O)(=O)CCOC5)cc3n1)CCC2 [Compound 586]
1520 | 119 | 12.81 |  |  |  |  | O=C(NCc1cc2nc(-c3cccc4c3OCO4)ccc2cn1)c1ccc2c(c1)S(=O)(=O)CCOC2 [Compound 229]
610 | 40.7 | 15.00 |  |  |  |  | CS(=O)(=O)c1cc(C(=O)NCc2cc3nc(-c4cccc(N5CC[C@H]6COC[C@H]6C5)n4)ccc3cn2)ccc1C(F)F [Compound 95]
 |  |  |  | 144 | 13.3 | 10.89 | COc1nc(-c2ccc3cnc(CNC(=O)c4ccc5c(c4)S(=O)(=O)[C@@H](C)COC5)cc3n2)ccc1C(F)F [Compound 519]
 |  |  |  | 48.3 | 5.9 | 8.14 | Cc1cc(C(=O)NCc2cc3nc(-c4cccc(N5C[C@@H](C)O[C@@H](C)C5)n4)ccc3cn2)cc2c1COC[C@H](C)S2(=O)=O [Compound 457]
 |  |  |  | 458 | 20.4 | 22.48 | C[C@@H]1CN(c2cccc(-c3ccc4cnc(CNC(=O)c5cc(Cl)c6c(c5)S(=O)(=O)CCO[C@@H]6C)cc4n3)n2)C[C@H](C)O1 [Compound 553]

IC50 ([1]; ADP-Glo ATPase assay) [nM] | IC50 ([2]; ADP-Glo ATPase assay) [nM] | Ratio* (BRG1 IC50 (μM) divided by BRM IC50 (μM)) [2] | Ratio* ([2]; ratio BRG1 IC50 / BRM IC50) | IC50 [1, 3] [nM] | IC50 [2, 3] [nM] | Ratio* ([2]; ratio of BRG1 IC50 to BRM IC50) | Compound
3900 | 1140 |  | 3.42 |  |  |  | O=C(NCc1cc2nc(N3CCCc4cccc(Cl)c43)ccc2cn1)c1ccc2c(c1)S(=O)(=O)CCOC2 [Compound 736]
 |  |  |  | 480 | 45.7 | 10.51 | CN(CC1(F)COC1)c1cccc(-c2ccc3cnc(CNC(=O)c4ccc5c(c4)S(=O)(=O)CCOC5)cc3n2)n1 [Compound 314]
1330 | 85.8 |  | 15.49 |  |  |  | O=C(NCc1cc2nc(N3CCCc4ncc(C5CC5)nc43)ccc2cn1)c1ccc2c(c1)S(=O)(=O)CCOC2 [Compound 785]
1740 | 275 | 6.33 |  |  |  |  | CN(C)[C@H]1CCN(c2cccc(-c3ccc4cnc(CNC(=O)c5ccc6c(c5)S(=O)(=O)CCOC6)cc4n3)n2)CC1(F)F [Compound 81]
 |  |  |  | 309 | 22.2 | 13.96 | CO[C@@H]1CN(c2cccc(-c3ccc4cnc(CNC(=O)c5ccc6c(c5)S(=O)(=O)CCOC6)cc4n3)n2)C[C@H]1F [Compound 340]
239 | 33.4 | 7.15 |  |  |  |  | Cn1ccc2ccc(-c3ccc4cnc(CNC(=O)c5ccc6c(c5)S(=O)(=O)CCOC6)cc4n3)nc21 [Compound 136]
3460 | 197 | 17.58 |  |  |  |  | CN(C)S(=O)(=O)c1cc(C(=O)NCc2cc3nc(-c4cncc(C5CC5)n4)ccc3cn2)ccc1Cl [Compound 288]
5000 | 316 | 15.84 |  |  |  |  | CC(C)S(=O)(=O)c1cccc(C(=O)NCc2cc3nc(-c4cncc(C5CC5)n4)ccc3cn2)c1 [Compound 296]
124 | 7.1 |  | 17.47 |  |  |  | O=C(NCc1cc2nc(N3CCOc4cnc(C5CC5)cc43)ccc2cn1)c1ccc2c(c1)S(=O)(=O)CCOC2 [Compound 755]
29.6 | 12.3 |  | 2.42 |  |  |  | Cc1cc(C(=O)NCc2cc3cc(-c4cccc(N5C[C@@H](C)O[C@@H](C)C5)n4)ccc3cn2)cc2c1COCCS2(=O)=O [Compound 728]
154 | 12.1 |  | 12.75 |  |  |  | Cc1cnc2c(c1)N(C1CC1)CCN2c1ccc2cnc(CNC(=O)c3ccc4c(c3)S(=O)(=O)CCOC4)cc2n1 [Compound 748]
1520 | 188 | 8.09 |  |  |  |  | Cn1cnc2c(-c3ccc4cnc(CNC(=O)c5ccc6c(c5)S(=O)(=O)CCOC6)cc4n3)cccc21 [Compound 234]
 |  |  |  | 125 | 9.5 | 13.13 | CO[C@@H]1CCN(c2cccc(-c3ccc4cnc(CNC(=O)c5ccc6c(c5)S(=O)(=O)CCOC6)cc4n3)n2)C[C@H]1C [Compound 353]
 |  |  |  | 954 | 74.8 | 12.76 | C[C@H](C1COC1)N(C)c1cccc(-c2ccc3cnc(CNC(=O)c4ccc5c(c4)S(=O)(=O)CCOC5)cc3n2)n1 [Compound 470]
194 | 17.4 |  | 11.17 |  |  |  | O=C(NCc1cc2nc(N3CCC(F)(F)c4cccnc43)ccc2cn1)c1ccc2c(c1)S(=O)(=O)CCOC2 [Compound 767]
2660 | 230 | 11.55 |  |  |  |  | O=C(NCc1cc2nc(-c3cccc(C4(F)COC4)n3)ccc2cn1)c1ccc2c(c1)S(=O)(=O)CCOC2 [Compound 142]
 |  |  |  | 2600 | 231 | 11.23 | C[C@@H]1CN(c2cccc(-c3ccc4cnc(CNC(=O)c5cnc6c(c5)S(=O)(=O)[C@H](C)CCC6)cc4n3)n2)C[C@H](C)O1 [Compound 515]
 |  |  |  | 1780 | 274 | 6.49 | O=C(NCc1cc2nc(-n3cc(F)c(N4CCOCC4)n3)ccc2cn1)c1ccc2c(c1)S(=O)(=O)CCOC2 [Compound 574]
 |  |  |  | 126 | 9 | 14.00 | Cc1cnc2c(c1)N(C)CCN2c1ccc2cnc(CNC(=O)c3ccc4c(c3)S(=O)(=O)CCOC4)cc2n1 [Compound 618]
1090 | 35.2 | 30.99 |  |  |  |  | O=C(NCc1cc2nc(-c3cccc([C@H]4CC4(F)F)n3)ccc2cn1)c1ccc2c(c1)S(=O)(=O)CCOC2 [Compound 267]
105 | 9.2 | 11.42 |  |  |  |  | COCCN1CCOc2c(-c3ccc4cnc(CNC(=O)c5ccc6c(c5)S(=O)(=O)CCOC6)cc4n3)cccc21 [Compound 172]
